In PMC8704315, “Lichen-Derived Compounds and Extracts as Biologically Active Substances with Anticancer and Neuroprotective Properties” (Pharmaceuticals, 2021):
Where two headings read alike, the source gives them in different places.

Assays:
[1] = molecular target: T1, glutathione reductase (GR) (Saccharomyces cerevisiae, UniProt P41921); assay: Effect on glutathione reductase activity; assay type: biochemical; settings: 444.4 μg/mL in the reaction mixture; on GR Inhibition under Reaction Conditions (%): key: -: not active
T1 construct: purchased Sigma Aldrich G3664
Method: Sample (20 µL, 5 mg/mL of pure DMSO) was mixed with 10 μL of EDTA solution and 12 μL of GSSG solution and incubated for 5 min at 25 °C; 4 μL of NADPH solution and was then added (all reagents were dissolved in […] sodium phosphate buffer, pH 7.6), and the initial absorbance (340 nm) was recorded. The reaction was then started by addition of 2 U glutathione reductase (2 μL, Sigma Aldrich no G3664), 177 μL of […] sodium phosphate buffer, and the absorbance was recorded after 5 min of incubation at 25 °C. Concentrations of reagents in the final mixture ([…]) were as follows: 0.5 mM EDTA, 10 mM GSSG and 10 mM NADPH. Blank sample was prepared with buffer instead of the sample and background was measured (mixture containing studied sample and buffer only). One unit of enzyme activity has been defined as nMol of NADPH consumed/min·mL sample, in comparison with nMol of NADPH consumed/min in blank (reagent) sample [75].

[2] = PAMPA-BBB permeability; assay type: in vitro ADME
From the text: To evaluate the effective permeability (Pe) of the salazinic acid, evernic acid, (−)-usnic acid as pure compounds and from the extracts (P. sulcata acetone extract, E. prunastri acetone extract, C. uncialis acetone extract, respectively), Parallel Artificial Membrane Permeability Assay (PAMPA) for the Blood-Brain Barrier (BBB) was used (Pion Inc., Billerica, MA, USA). The stock solutions of acetone extracts from C. uncialis, E. prunastri and P. sulcata and from (−)-usnic acid, evernic acid, salazinic acid, were prepared with DMSO (the concentrations of salazinic acid, evernic acid, and (−)-usnic acid reached were 2.5 mg/mL for pure compounds and extracts). Next, the donor solution was prepared (5 µL of stock solution/1000 µL of Prisma buffer, pH = 7.4 (Prisma HT, Pion Inc.). Subsequently, each filter membrane of the acceptor plate wells was coated with 5 μL BBB-1 lipid solution (Pion Inc.), and 180 µL of the donor solution was added to the donor wells. The acceptor well was filled with 200 µL BSB (Brain Sink Buffer, Pion Inc.). The plate was incubated for 1 h or 4 h at 37 °C. After incubation, the donor and acceptor concentrations of examined substances were determined using the HPLC. Effective permeability (Pe) of the compounds was calculated by using the following equation. (4) Pe=−ln(1−CA/Ceq)/S×(1/VD+1/VA)×t where Pe is the effective permeability coefficient (cm/s), VD = donor volume, VA = acceptor volume, Ceq = equilibrium concentration and Ceq=CD×VD+CA×VA/VD+VA , S = membrane area, and t = incubation time (in seconds).
Compounds with Pe (× 10^−6 cm/s) > 1.5 are classified as high permeation predicted, while Pe (× 10^−6 cm/s) < 1.5 are classified as low permeation predicted. Samples were analyzed in triplicate and the average is reported.

[3] = molecular target: T2, tryptophan 2,3-dioxygenase (TDO) (Homo sapiens, UniProt P48775); assay: Universal IDO1/IDO2/TDO Inhibitor Screening Assay Kit, TDO; assay type: biochemical; settings: for inhibition at 100 µg/mL: read-out: Inhibition (%) TDO
T2 construct: purchased BPS Bioscience, Inc. (San Diego, CA, USA)
Method: This colorimetric assay is based on the measurement of the ability of IDO1, IDO2 and TDO to convert L-tryptophan into N-formylkynurenine (NFK). The experiments were performed according to the manufacturer’s guidelines. The final concentration of the compounds and extracts in the reaction mixture was 100 µg/mL. The amount of NFK was measured spectrophotometrically at 320 nm using an Epoch BioTek microplate reader (BioTek Instruments, Inc., Winooski, VT, USA). The samples were run in triplicate and the results were expressed as mean ± SEM.

[4] = molecular target: BChE (Homo sapiens, UniProt P06276); assay type: biochemical; settings: sample 142.9 μg/mL in the reaction mixture
Method: Ellman’s colorimetric method was used with modifications described previously. Tested sample (10 μL) at concentration 5 mg/mL was mixed with 20 μL of AChE (or BChE) solution (0.28 U/mL) and completed after 5 min with 35 μL of ATChI (or BTCh) (1.5 mmol/L), 175 μL of 0.3 mmol/L DTNB (containing 10 mmol/L NaCl and 2 mmol/L MgCl2) and 110 μL with Tris-HCl buffer (50 mmol/L, pH 8.0). Samples containing 10 μL of Tris-HCl buffer instead of the studied sample were run in the same way (“blank” samples). The increase in the absorbance due to the spontaneous hydrolysis of the substrate was monitored using “blank” samples containing ATCh (or BTCh) and DTNB completed to 350 μL with Tris-HCl buffer. All samples were incubated at 22 °C (30 min; incubation time was determined after optimization experiments, details not shown), and the absorbance was measured (405 nm, 96-well microplate reader, Tecan Sunrise, Grödig, Austria). The “false-positive” effect of studied compounds was measured according to Rhee et al. with minor modifications, as described previously: after mixing of the substrate with the enzyme and buffer, the “false-positive” sample was left for incubation. Then, a studied sample and DTNB were added, followed by an immediate measurement of the absorbance.
Reference cholinesterase inhibitors were used for the calculations of results (eserine, neostigmine, magniflorine, rivastigmine and donepezil). For this purpose, for each compound, 16 dilutions in pure DMSO were prepared (2.57–41.14 μg/mL). These solutions (10 μL) were tested as described above and calibration curves were produced.
Each sample was analyzed in at least eight repeats, and all solutions used in a set of analyses were prepared in the same buffer. For calculations, the background of the sample (10 μL mixed with 340 μL of Tris buffer) was measured at 405 nm and subtracted during calculations. Then, the absorbance of the test sample was subtracted from the absorbance of the “blank” sample.

[5] = pH 7.4, Pe (effective permeability, PAMPA-BBB)

T1 sequence (P41921 17-483): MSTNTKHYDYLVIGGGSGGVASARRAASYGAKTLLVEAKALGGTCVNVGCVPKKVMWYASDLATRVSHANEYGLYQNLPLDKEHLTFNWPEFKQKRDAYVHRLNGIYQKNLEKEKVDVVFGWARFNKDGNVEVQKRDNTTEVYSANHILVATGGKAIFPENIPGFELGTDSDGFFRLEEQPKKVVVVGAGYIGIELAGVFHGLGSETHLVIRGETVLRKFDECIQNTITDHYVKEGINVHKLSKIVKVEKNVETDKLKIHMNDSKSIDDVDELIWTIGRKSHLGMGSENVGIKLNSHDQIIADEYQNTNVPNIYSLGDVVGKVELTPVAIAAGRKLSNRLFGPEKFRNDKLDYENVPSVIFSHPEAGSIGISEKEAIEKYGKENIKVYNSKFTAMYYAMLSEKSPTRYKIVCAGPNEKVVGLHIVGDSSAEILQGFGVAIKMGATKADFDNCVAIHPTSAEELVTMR
T2 sequence (P48775 whole entry, species assumed): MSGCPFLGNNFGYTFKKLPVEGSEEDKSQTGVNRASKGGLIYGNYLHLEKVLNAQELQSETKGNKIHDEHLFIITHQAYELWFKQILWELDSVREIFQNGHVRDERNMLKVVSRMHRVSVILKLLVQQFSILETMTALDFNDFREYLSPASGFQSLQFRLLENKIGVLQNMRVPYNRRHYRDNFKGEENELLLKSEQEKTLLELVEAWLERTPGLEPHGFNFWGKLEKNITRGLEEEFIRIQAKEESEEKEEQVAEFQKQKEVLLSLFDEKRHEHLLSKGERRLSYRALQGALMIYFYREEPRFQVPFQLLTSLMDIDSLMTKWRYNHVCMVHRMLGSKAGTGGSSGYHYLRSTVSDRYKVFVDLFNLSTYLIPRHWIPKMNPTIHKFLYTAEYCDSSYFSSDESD
BChE, sequence (P06276 29-602, species assumed): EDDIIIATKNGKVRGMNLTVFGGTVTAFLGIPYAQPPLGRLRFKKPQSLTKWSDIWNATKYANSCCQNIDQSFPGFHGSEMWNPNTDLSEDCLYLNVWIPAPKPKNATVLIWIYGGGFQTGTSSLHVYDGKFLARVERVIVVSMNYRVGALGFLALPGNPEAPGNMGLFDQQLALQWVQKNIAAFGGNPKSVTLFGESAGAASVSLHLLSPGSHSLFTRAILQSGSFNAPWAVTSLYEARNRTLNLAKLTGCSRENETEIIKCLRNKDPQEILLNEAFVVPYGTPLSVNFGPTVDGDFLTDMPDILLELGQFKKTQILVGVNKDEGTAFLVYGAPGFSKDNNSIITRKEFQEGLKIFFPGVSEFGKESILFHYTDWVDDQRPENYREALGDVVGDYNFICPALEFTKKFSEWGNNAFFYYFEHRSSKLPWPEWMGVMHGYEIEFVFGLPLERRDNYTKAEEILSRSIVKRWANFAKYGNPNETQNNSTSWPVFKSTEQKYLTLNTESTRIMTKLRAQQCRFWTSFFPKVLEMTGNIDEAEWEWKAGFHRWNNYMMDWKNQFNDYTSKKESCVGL

| SMILES | GR Inhibitory Activity (nMol Depleted NADPH/min Incubation) [1] | inhibition at 444.4 µg/mL ([1]; read-out: GR Inhibition under Reaction Conditions (%)) [%] | Papp at 1 h, 12.5 µg/mL ([2]; pH 7.4, compound permeated from the acetone extract, 1 h, 37 °C, pH 7.4, ± SEM, n = 3, read-out: Pe × 10^−6 (cm/s) t = 1 h) [nm/s] | Papp at 12.5 µg/mL ([2]; pH 7.4, from the extract or as a pure compound, bound stated, read-out: Pe (effective permeability, PAMPA-BBB)) [nm/s] | Papp at 1 h, 12.5 µg/mL ([2]; pH 7.4, pure compound (PC), 1 h, 37 °C, pH 7.4, ± SEM, n = 3, read-out: Pe × 10^−6 (cm/s) t = 1 h) [nm/s] | inhibition at 100 µg/mL [3] [%] | GR Inhibition under Reaction Conditions (%) [1] | Equivalent Reference Concentration, Donepezil, BChE [4] [µg/mL] | Equivalent Reference Concentration, Eserine, BChE [4] [µg/mL] | Equivalent Reference Concentration, Magniflorine, BChE [4] [µg/mL] | Equivalent Reference Concentration, Neostygmine, BChE [4] [µg/mL] | Equivalent Reference Concentration, Rivastigmine, BChE [4] [µg/mL] | Pe × 10^−6 (cm/s) t = 1 h ([2]; 1 h, 12.5 µg/mL, pH 7.4) | Pe × 10^−6 (cm/s) t = 4 h ([2]; 4 h, 12.5 µg/mL, pH 7.4) | Papp at 12.5 µg/mL [2, 5] [nm/s] | Papp at 1 h, 12.5 µg/mL ([2]; pH 7.4, Pe × 10^−6 (cm/s) t = 1 h) [nm/s] | Papp at 4 h, 12.5 µg/mL ([2]; pH 7.4, Pe × 10^−6 (cm/s) t = 4 h) [nm/s] | inhibition at 100 µg/mL ([3]; 100 µg/mL) [%] | Inhibition (%) TDO ([3]; 100 µg/mL) |
| --- | --- | --- | --- | --- | --- | --- | --- | --- | --- | --- | --- | --- | --- | --- | --- | --- | --- | --- | --- |
| CC(=O)C1=C(O)C=C2Oc3c(C(C)=O)c(O)c(C)c(O)c3C2(C)C1=O (single isomer, unassigned; (-)) [(−)-Usnic acid, (−)-usnic acid] | 710.2 ± 42.3 nMol Depleted NADPH/min Incubation | 18.2 ± 2.2 | 1400 ± 73 | > 15 | 928 ± 63 | < 10 |  |  |  |  |  |  |  |  |  |  |  |  |  |
| COc1cc(C)c(C(=O)Oc2cc(C)c(C(=O)O)c(O)c2)c(O)c1 [Evernic acid, evernic acid] |  |  |  |  |  |  | - | 9.5 ± 0.0 | 10.9 ± 0.1 | 52.3 ± 0.1 | 16.5 ± 0.2 | 85.9 ± 0.1 | 5.0 ± 0.7 × 10^−6 cm/s | 7.2 ± 0.4 × 10^−6 cm/s | > 15 | 52 ± 8 | 86 ± 4 | < 10 |  |
| Cc1cc(O)c(C=O)c2c1C(=O)Oc1c(CO)c(O)c3c(c1O2)C(O)OC3=O (stereo not drawn) [Salazinic acid, salazinic acid] |  |  |  |  |  |  | - | 7.9 ± 0.3 | 9.0 ± 0.1 | 43.2 ± 0.2 | 13.6 ± 0.1 | 70.9 ± 0.3 |  |  | < 5 |  |  | < 10 | did not exhibit any inhibition effect |
